Usually Ki stands for a dissociation constant, usually derived from enzyme kinetics or from competition with a known ligand.

Bounds are passed on as bounds.

In one test the target is T1, Aurora-2 (Homo sapiens, UniProt O14965).
T1 construct: addition of 10 μL of Aurora-2 stock solution to give a final concentration of 70 nM
T1 sequence (O14965 1-403): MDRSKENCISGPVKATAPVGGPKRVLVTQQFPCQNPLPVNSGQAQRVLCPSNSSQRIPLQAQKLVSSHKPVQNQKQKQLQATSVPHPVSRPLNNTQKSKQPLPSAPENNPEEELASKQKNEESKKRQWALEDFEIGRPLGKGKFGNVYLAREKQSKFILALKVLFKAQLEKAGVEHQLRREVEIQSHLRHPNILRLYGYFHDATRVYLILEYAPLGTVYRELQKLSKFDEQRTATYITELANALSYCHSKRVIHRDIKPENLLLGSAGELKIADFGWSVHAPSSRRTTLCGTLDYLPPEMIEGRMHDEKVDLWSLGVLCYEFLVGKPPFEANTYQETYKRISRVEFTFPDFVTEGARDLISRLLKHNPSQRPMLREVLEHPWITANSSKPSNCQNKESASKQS
Put plainly: Inhibition of AUR-2, coupled enzyme assay. Type of test: biochemical. As to conditions: 70 nM Aurora-2, 800 μM peptide LRRASLG, 30° C. As to the method:
Compounds are screened in the following manner for their ability to inhibit Aurora-2 using a standard coupled enzyme assay (Fox et al. (1998) Protein Sci 7, 2249). To an assay stock buffer solution containing 0.1M HEPES 7.5, 10 mM MgCl2, 1 mM DTT, 25 mM NaCl, 2.5 mM phosphoenolpyruvate, […], […], […], and 800 μM peptide (LRRASLG, American Peptide, Sunnyvale, Calif.) is added a DMSO solution of a compound of the present invention to a final concentration of 30 μM. The resulting mixture is incubated at 30° C. for 10 min. The reaction was initiated by the addition of 10 μL of Aurora-2 stock solution to give a final concentration of 70 nM in the assay. The rates of reaction are obtained by monitoring absorbance at 340 nm over a 5 minute read time at 30° C. using a BioRad Ultramark plate reader (Hercules, Calif.). The Ki values are determined from the rate data as a function of inhibitor concentration.

The target in another test is GSK-3β, (AA 1-420) (Homo sapiens, UniProt P49841). Put plainly: GSK-3 inhibition assay, coupled enzyme system. Type of test: biochemical. To be noted: 20 μM ATP, 300 μM peptide, 20 nM GSK-3b, 30° C.; read-out: Ki values (GSK3). The gist of the method: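 Pyruvate kinase/lactate dehydrogenase-coupled NADH assay with 20 nM enzyme, 20 μM ATP and 300 μM peptide in HEPES pH 7.5, 1.5% DMSO, 30° C. Compound (0.002–30 μM, 12-point) preincubated 10 min before ATP start; rates over 10 min gave Ki.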
GSK-3β, (AA 1-420), sequence (P49841 whole entry, the tested form may be a part): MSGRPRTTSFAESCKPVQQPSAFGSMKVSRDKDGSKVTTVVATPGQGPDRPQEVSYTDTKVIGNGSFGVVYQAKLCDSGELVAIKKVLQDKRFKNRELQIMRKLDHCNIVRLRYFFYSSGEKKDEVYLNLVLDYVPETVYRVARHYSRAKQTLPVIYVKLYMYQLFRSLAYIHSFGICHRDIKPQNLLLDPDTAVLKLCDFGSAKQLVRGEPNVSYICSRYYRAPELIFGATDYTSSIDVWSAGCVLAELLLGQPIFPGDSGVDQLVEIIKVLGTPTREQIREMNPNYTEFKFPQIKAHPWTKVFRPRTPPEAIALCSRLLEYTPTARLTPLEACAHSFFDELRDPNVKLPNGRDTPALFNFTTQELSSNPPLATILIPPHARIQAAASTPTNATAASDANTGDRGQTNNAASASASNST

As for `CN(C)Cc1ccc(-c2cnc3[nH]cc(-c4oncc4-c4cccc(F)c4F)c3c2)cc1` [Compound 91, (4-{3-[4-(2,3-Difluoro-phenyl)-isoxazol-5-yl]-1H-pyrrolo[2,3-b]pyridin-5-yl}-benzyl)-dimethyl-amine], the Ki at Aurora-2 lay within 200 to 1000 nM; on GSK-3β, (AA 1-420) it was 1000 to 12500 nM. Take `c1cnc2[nH]cc(-c3oncc3C3CCCCC3)c2c1` [Compound 47, 3-(4-Cyclohexyl-isoxazol-5-yl)-1H-pyrrolo[2,3-b]pyridine]: the Ki at Aurora-2 fell in the range of 200 to 1000 nM; on GSK-3β, (AA 1-420), 1000 to 12500 nM.

Turning to `Clc1cccc(-c2cnoc2-c2c[nH]c3ncccc23)c1Cl` [Compound 2, 3-[4-(2,3-Dichloro-phenyl)-isoxazol-5-yl]-1H-pyrrolo[2,3-b]pyridine], the Ki at Aurora-2 was 200 to 1000 nM; at GSK-3β, (AA 1-420), 1000 to 12500 nM. `COc1cnc2[nH]cc(-c3oncc3-c3cccc(F)c3F)c2c1` [Compound 38, 3-[4-(2,3-Difluoro-phenyl)-isoxazol-5-yl]-5-methoxy-1H-pyrrolo[2,3-b]pyridine]: the Ki on Aurora-2 lay in the range of 200 to 1000 nM; on GSK-3β, (AA 1-420), 200 to 1000 nM. Take `Fc1cccc(-c2cnoc2-c2c[nH]c3ncc(-c4ccncc4)cc23)c1F` [Compound 57, 3-[4-(2,3-Difluoro-phenyl)-isoxazol-5-yl]-5-pyridin-4-yl-1H-pyrrolo[2,3-b]pyridine]: the inhibitory constant (Ki) at Aurora-2 is < 200 nM; at GSK-3β, (AA 1-420), 200 to 1000 nM. `Oc1cnc2[nH]cc(-c3oncc3-c3cccc(F)c3F)c2c1` [Compound 43, 3-[4-(2,3-Difluoro-phenyl)-isoxazol-5-yl]-1H-pyrrolo[2,3-b]pyridin-5-ol]: the Ki at Aurora-2 was 200 to 1000 nM; on GSK-3β, (AA 1-420) it was 200 to 1000 nM.

Take `Fc1cccc(-c2cnoc2-c2c[nH]c3ncc(-c4c[nH]cn4)cc23)c1F` [Compound 76, 3-[4-(2,3-Difluoro-phenyl)-isoxazol-5-yl]-5-(3H-imidazol-4-yl)-1H-pyrrolo[2,3-b]pyridine]: the Ki at Aurora-2 was < 200 nM; on GSK-3β, (AA 1-420), 200 to 1000 nM. For the compound `Fc1cccc(-c2cnoc2-c2c[nH]c3ncc(-c4ncccn4)cc23)c1F` [Compound 75, 3-[4-(2,3-Difluoro-phenyl)-isoxazol-5-yl]-5-pyrimidin-2-yl-1H-pyrrolo[2,3-b]pyridine], the Ki on Aurora-2 was 200 to 1000 nM; at GSK-3β, (AA 1-420) it was 1000 to 12500 nM. Taken in the same sequence, the figures for `Fc1cccc(-c2cnoc2-c2c[nH]c3ncc(-c4ccc(CN5CCCC5)cc4)cc23)c1F` [Compound 93, 3-[4-(2,3-Difluoro-phenyl)-isoxazol-5-yl]-5-(4-pyrrolidin-1-ylmethyl-phenyl)-1H-pyrrolo[2,3-b]pyridine] were < 200 nM and 200 to 1000 nM.

Consider `Fc1cccc(-c2cnoc2-c2c[nH]c3ncc(-c4ccc(N5CCNCC5)cc4)cc23)c1F` [Compound 68, 3-[4-(2,3-Difluoro-phenyl)-isoxazol-5-yl]-5-(4-piperazin-1-yl-phenyl)-1H-pyrrolo[2,3-b]pyridine], for which the Ki on Aurora-2 is < 200 nM; on GSK-3β, (AA 1-420) it was < 200 nM.

As to `Oc1cccc(-c2cnc3[nH]cc(-c4oncc4-c4cccc(F)c4F)c3c2)c1` [Compound 87, 3-{3-[4-(2,3-Difluoro-phenyl)-isoxazol-5-yl]-1H-pyrrolo [2,3-b]pyridin-5-yl}-phenol], the Ki was < 200 nM on Aurora-2 and 1000 to 12500 nM on GSK-3β, (AA 1-420). Take `CN1CCN(c2ccc(-c3cnc4[nH]cc(-c5nncn5-c5cccc(F)c5F)c4c3)cc2)CC1` [Compound 110, 3-[4-(2,3-Difluoro-phenyl)-4H-[1,2,4]triazol-3-yl]-5-[4-(4-methyl-piperazin-1-yl)-phenyl]-1H-pyrrolo[2,3-b]pyridine]: the Ki at GSK-3β, (AA 1-420) fell in the range of 200 to 1000 nM. Same read-out and setting: the same measure for `COC(=O)c1cnc2[nH]cc(-c3oncc3-c3cccc(F)c3F)c2c1` [Compound 105, 3-[4-(2,3-Difluoro-phenyl)-isoxazol-5-yl]-1H-pyrrolo[2,3-b]pyridine-5-carboxylic acid methyl ester]: 200 to 1000 nM; for `Fc1cccc(-n2cnnc2-c2c[nH]c3ncc(-c4ccc(N5CCCC5)nc4)cc23)c1F` [Compound 118, 3-[4-(2,3-Difluoro-phenyl)-4H-[1,2,4]triazol-3-yl]-5-(6-pyrrolidin-1-yl-pyridin-3-yl)-1H-pyrrolo[2,3-b]pyridine]: 200 to 1000 nM; for `CN(C)CC#Cc1cnc2[nH]cc(-c3oncc3-c3cccc(F)c3F)c2c1` [Compound 53, (3-{3-[4-(2,3-Difluoro-phenyl)-isoxazol-5-yl]-1H-pyrrolo[2,3-b]pyridin-5-yl}-prop-2-ynyl)-dimethyl-amine]: 200 to 1000 nM.

Take `CN(C)c1ccc(-c2cnc3[nH]cc(-c4nncn4-c4cccc(F)c4F)c3c2)cc1` [Compound 106, (4-{3-[4-(2,3-Difluoro-phenyl)-4H-[1,2,4]triazol-3-yl]-1H-pyrrolo[2,3-b]pyridin-5-yl}-phenyl)-dimethyl-amine]: at GSK-3β, (AA 1-420), the Ki was < 200 nM.

Turning to `N#CCC(=O)N1CCC(c2cnc3[nH]cc(-c4oncc4-c4cccc(F)c4F)c3c2)CC1` [Compound 64, 3-(4-{3-[4-(2,3-Difluoro-phenyl)-isoxazol-5-yl]-1H-pyrrolo[2,3-b]pyridin-5-yl}-piperidin-1-yl)-3-oxo-propionitrile], the Ki on GSK-3β, (AA 1-420) is < 200 nM.

Consider `CN1CCN(C(=O)[C@H]2C[C@H]2c2cnc3[nH]cc(-c4oncc4-c4cccc(F)c4F)c3c2)CC1` (relative stereo) [Compound 143, cis-(2-{3-[4-(2,3-Difluoro-phenyl)-isoxazol-5-yl]-1H-pyrrolo[2,3-b]pyridin-5-yl}-cyclopropyl)-(4-methyl-piperazin-1-yl)-methanone], for which the Ki on GSK-3β, (AA 1-420) was in the range of 1000 to 12500 nM. The same measure, in the same setting: the same measure for `CN(C)C1CC=C(c2cnc3[nH]cc(-c4oncc4-c4cccc(F)c4F)c3c2)CC1` (stereo not drawn) [Compound 138, (4-{3-[4-(2,3-Difluoro-phenyl)-isoxazol-5-yl]-1H-pyrrolo[2,3-b]pyridin-5-yl}-cyclohex-3-enyl)-dimethyl-amine]: < 200 nM.

`CS(=O)(=O)NC1CC=C(c2cnc3[nH]cc(-c4oncc4-c4cccc(F)c4F)c3c2)CC1` (stereo not drawn) [Compound 140, N-(4-{3-[4-(2,3-Difluoro-phenyl)-isoxazol-5-yl]-1H-pyrrolo[2,3-b]pyridin-5-yl}-cyclohex-3-enyl)-methanesulfonamide]: the Ki at GSK-3β, (AA 1-420) is < 200 nM. On to `Fc1ccc(-c2cnc3[nH]cc(-c4oncc4-c4cccc(F)c4F)c3c2)cn1` [Compound 69, 3-[4-(2,3-Difluoro-phenyl)-isoxazol-5-yl]-5-(6-fluoro-pyridin-3-yl)-1H-pyrrolo[2,3-b]pyridine], for which the Ki at GSK-3β, (AA 1-420) is < 200 nM.

For `Fc1cccc(-n2cnnc2-c2c[nH]c3ncc(-c4cccnc4)cc23)c1F` [Compound 113, 3-[4-(2,3-Difluoro-phenyl)-4H-[1,2,4]triazol-3-yl]-5-pyridin-3-yl-1H-pyrrolo[2,3-b]pyridine], at GSK-3β, (AA 1-420), the Ki is < 200 nM. For `NC1CC=C(c2cnc3[nH]cc(-c4oncc4-c4cccc(F)c4F)c3c2)CC1` (stereo not drawn) [Compound 137, 4-{3-[4-(2,3-Difluoro-phenyl)-isoxazol-5-yl]-1H-pyrrolo [2,3-b]pyridin-5-yl}-cyclohex-3-enylamine], at GSK-3β, (AA 1-420), the Ki is < 200 nM. With `CN(C)c1ccnc(-c2cnc3[nH]cc(-c4oncc4-c4cccc(F)c4F)c3c2)c1` [Compound 80, (2-{3-[4-(2,3-Difluoro-phenyl)-isoxazol-5-yl]-1H-pyrrolo[2,3-b]pyridin-5-yl}-pyridin-4-yl)-dimethyl-amine], at GSK-3β, (AA 1-420), the Ki lay in the range of 1000 to 12500 nM. On the same count and under the same terms, for `CN(C)c1ccc(-c2cnc3[nH]cc(-c4oncc4-c4cccc(F)c4F)c3c2)cc1` [Compound 88, (4-{3-[4-(2,3-Difluoro-phenyl)-isoxazol-5-yl]-1H-pyrrolo[2,3-b]pyridin-5-yl}-phenyl)-dimethyl-amine] the value was 200 to 1000 nM. Still for that read-out and setting: for `Fc1cccc(-c2cnoc2-c2c[nH]c3ncc(-c4cnc5[nH]ccc5c4)cc23)c1F` [Compound 77, 3-[4-(2,3-Difluoro-phenyl)-isoxazol-5-yl]-1H,1′H-[5,5′]bi[pyrrolo[2,3-b]pyridinyl]] the value was 200 to 1000 nM; for `CN(C)CCNc1ccc(-c2cnc3[nH]cc(-c4nncn4-c4cccc(F)c4F)c3c2)cn1` [Compound 119, N′-(5-{3-[4-(2,3-Difluoro-phenyl)-4H-[1,2,4]triazol-3-yl]-1H-pyrrolo[2,3-b]pyridin-5-yl}-pyridin-2-yl)-N,N-dimethyl-ethane-1,2-diamine], 200 to 1000 nM; for `Fc1cccc(-c2cnoc2-c2c[nH]c3ncc(C4=CCC(N5CCOCC5)CC4)cc23)c1F` (stereo not drawn) [Compound 139, 3-[4-(2,3-Difluoro-phenyl)-isoxazol-5-yl]-5-(4-morpholin-4-yl-cyclohex-1-enyl)-1H-pyrrolo[2,3-b]pyridine], < 200 nM.

(Values after patent US7446199B2, “Compositions useful as inhibitors of protein kinases” (Vertex Pharmaceuticals Incorporated, priority 2003, dated 2008).)
